Data taken from ChEMBL document CHEMBL5338745, “Factor XIa Inhibitors in Anticoagulation Therapy: Recent Advances and Perspectives” (J Med Chem, 2023).

Columns and labels:
[1] = Half life in IG dosed Beagle dog measured upto 24 hrs by LC/MS analysis; type: ADME, organism-based, Canis lupus familiaris; details: in vivo, po
Plasma kallikrein = Plasma kallikrein (Homo sapiens, UniProt P03952)
Coagulation factor XI [2] = target: T1, Coagulation factor XI (Homo sapiens, UniProt P03951); test: Inhibition of human FXIa by absorbance based analysis
T1 sequence (P03951 19-387 limits assumed): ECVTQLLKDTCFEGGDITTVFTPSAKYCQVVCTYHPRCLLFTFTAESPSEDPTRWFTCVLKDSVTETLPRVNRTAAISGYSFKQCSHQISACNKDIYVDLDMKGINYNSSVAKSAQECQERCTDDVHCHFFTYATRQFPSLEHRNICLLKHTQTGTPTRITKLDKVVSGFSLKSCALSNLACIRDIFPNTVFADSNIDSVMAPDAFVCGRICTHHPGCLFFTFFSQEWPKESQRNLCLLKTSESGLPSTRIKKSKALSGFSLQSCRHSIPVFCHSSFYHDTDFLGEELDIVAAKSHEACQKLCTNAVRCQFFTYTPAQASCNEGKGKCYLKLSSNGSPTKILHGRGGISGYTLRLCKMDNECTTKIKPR
T1 sequence (P03951 388-625 limits assumed): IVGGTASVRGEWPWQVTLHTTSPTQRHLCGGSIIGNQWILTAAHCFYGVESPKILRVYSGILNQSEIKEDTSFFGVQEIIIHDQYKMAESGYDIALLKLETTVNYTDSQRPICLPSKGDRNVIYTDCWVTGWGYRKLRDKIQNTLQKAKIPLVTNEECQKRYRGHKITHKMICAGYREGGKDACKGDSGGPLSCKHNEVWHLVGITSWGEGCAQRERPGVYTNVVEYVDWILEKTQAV

[3] = Oral bioavailability in Beagle dog measured upto 24 hrs by LC/MS analysis; type: ADME, organism-based, Canis lupus familiaris; details: in vivo
Coagulation factor XI [4] = target: T1, Coagulation factor XI; test: Inhibition of FXIa (unknown origin)
[5] = Clearance in rat; type: ADME; details: in vivo
[6] = Solubility of the compound; type: physicochemical
[7] = Half life in rat; type: ADME; details: in vivo
[8] = Half life in Sprague-Dawley rat at 1 mg/kg, iv; type: ADME, organism-based; details: in vivo
[9] = Clearance in Sprague-Dawley rat at 1 mg/kg, iv; type: ADME, organism-based; details: in vivo
Plasma [10] = test: Anticoagulant activity in human plasma assessed as concentration required to double the activated partial thromboplastin time; type: functional
[11] = Clearance in rat at 1 mg/kg, iv; type: ADME, organism-based; details: in vivo
Plasma [12] = test: Anticoagulant activity in human plasma assessed as concentration required to 1.5 times activation of partial thromboplastin time; type: functional
[13] = Oral bioavailability in rat at 1.5 mg/kg; type: ADME, organism-based; details: in vivo
in vivo [14] = details: rat, iv, 0.3 mg/kg
in vivo [15] = details: rhesus monkey, iv, 3 mg/kg
[16] = Clearance in cynomolgus monkey at 1 mg/kg, iv; type: ADME, organism-based, Macaca fascicularis; details: in vivo
[17] = Oral bioavailability in cynomolgus monkey at 10 mg/kg, […]; type: ADME, organism-based, Macaca fascicularis; details: in vivo
[18] = Half life in cynomolgus monkey at 1 mg/kg, iv; type: ADME, organism-based, Macaca fascicularis; details: in vivo
Plasma [19] = test: Anticoagulant activity in human plasma assessed as concentration required to double the prothrombin time; type: functional
[20] = Clearance in Sprague-Dawley rat at 0.5 mg/kg, iv; type: ADME, organism-based; details: in vivo
[21] = Half life in Sprague-Dawley rat at 0.5 mg/kg, iv; type: ADME, organism-based; details: in vivo
[22] = Oral bioavailability in Sprague-Dawley rat at 3 mg/kg; type: ADME, organism-based; details: in vivo
[23] = Metabolic stability in dog liver microsomes assessed as half life; type: ADME, Canis lupus familiaris, Microsome
[24] = Oral bioavailability in Sprague-Dawley rat incubated upto 24 hrs by LC-MS/MS analysis; type: ADME, organism-based; details: in vivo
[25] = Metabolic stability in mouse liver microsomes assessed as half life; type: ADME, Microsome
[26] = MRT in iv dosed rat measured upto 8 hrs by LC-MS/MS analysis; type: ADME, organism-based; details: in vivo
Coagulation factor XI [27] = target: T1, Coagulation factor XI; test: Inhibition of human FXIa
[28] = Half life in human at 0.6 mg/kg, iv administered for 5 days; type: ADME, organism-based; details: in vivo, time 5 day
Trypsin = Trypsin (Homo sapiens, UniProt P07477+P07478+P35030); test: Inhibition of human trypsin; type: protein assay
Prothrombin = Prothrombin (Homo sapiens, UniProt P00734); test: Inhibition of human thrombin

Plasma kallikrein, sequence (P03952 20-390 limits assumed): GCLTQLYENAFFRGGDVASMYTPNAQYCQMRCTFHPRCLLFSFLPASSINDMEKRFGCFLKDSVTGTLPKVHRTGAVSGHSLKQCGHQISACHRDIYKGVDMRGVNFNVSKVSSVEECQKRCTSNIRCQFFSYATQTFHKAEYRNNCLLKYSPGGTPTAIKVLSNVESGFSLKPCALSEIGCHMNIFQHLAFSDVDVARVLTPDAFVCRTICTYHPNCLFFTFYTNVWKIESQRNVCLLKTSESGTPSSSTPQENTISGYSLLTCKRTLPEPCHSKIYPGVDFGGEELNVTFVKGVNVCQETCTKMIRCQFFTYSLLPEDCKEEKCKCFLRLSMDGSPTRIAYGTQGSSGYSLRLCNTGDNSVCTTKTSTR
Plasma kallikrein, sequence (P03952 391-638 limits assumed): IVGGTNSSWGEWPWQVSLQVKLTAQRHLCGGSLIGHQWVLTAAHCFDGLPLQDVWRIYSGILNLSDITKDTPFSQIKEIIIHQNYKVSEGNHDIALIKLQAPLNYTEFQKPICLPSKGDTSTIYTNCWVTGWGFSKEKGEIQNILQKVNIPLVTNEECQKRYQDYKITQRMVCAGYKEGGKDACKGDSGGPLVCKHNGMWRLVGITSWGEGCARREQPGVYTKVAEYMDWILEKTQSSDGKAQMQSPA

For `COc1nn([C@@H](Cc2ccccc2)C(=O)Nc2ccc(C(=O)O)cc2)c(=O)cc1-c1cc(Cl)ccc1C(C)=O`, the half-life [1] was 4.5 h, the Ki (Plasma kallikrein) was 103 nM and the Ki (Coagulation factor XI [2]) was 1.6 nM. It also gave a bioavailability [3] of 49.6%.

For `O=C(O)c1ccc(NC(=O)[C@H](Cc2ccccc2)n2cnc(-c3cc(Cl)ccc3-n3cc(Cl)nn3)cc2=O)cc1`, the IC50 (Plasma kallikrein) was 189 nM and the IC50 (Coagulation factor XI [4]) was 2.5 nM.

`O=C(/C=C/c1cc(Cl)ccc1-n1cnnn1)N[C@@H](CC(=O)N1CCN(c2ccccc2)CC1)C(=O)Nc1ccc(C(=O)O)cc1` gave a clearance [5] of 9.2 mL/min/kg, an IC50 (Plasma kallikrein) of over 14000 nM and a solubility [6] of over 5200 µg/mL. The half-life [7] was 1.26 h and the IC50 (Coagulation factor XI [4]) was 7.1 nM.

`O=C(O)c1cc2cc(NC(=O)[C@H](Cc3ccc(N4CCN(C5CCC(O)CC5)CC4=O)cc3)N3CCN(c4cc(Cl)ccc4-n4cnnn4)C(=O)C3=O)ccc2[nH]1` (some centres undefined) showed an IC50 (Coagulation factor XI [2]) of 1.75 nM, a half-life [8] of 0.46 h and a clearance [9] of 33.3 mL/min/kg. It also gave an EC (Plasma [10]) of 1.1 µM.

`Nc1ccc(-c2cnc(Cn3c4c(c(-c5cc(Cl)ccc5-n5cnnn5)cc3=O)OCC4)[nH]2)c(F)n1` gave an IC50 (Coagulation factor XI [4]) of 1.6 nM.

For `O=C(O)c1ccc(NC(=O)[C@H](CC2CC2)c2ccc(-c3c(C(F)F)ccc(Cl)c3F)c[n+]2[O-])cc1` (mixture of isomers), the clearance [11] was 1.9 mL/min/kg, the EC (Plasma [12]) was 0.61 µM and the bioavailability [13] was 89%.

With `CC[C@@H](C(=O)Nc1ccc(C(N)=O)c(F)c1)n1cc(OC)c(-c2cc(Cl)ccc2-n2cc(Cl)nn2)cc1=O` the clearance (in vivo [14]) was 13.3 mL/min/kg and the clearance (in vivo [15]) was 5.5 mL/min/kg.

Compound `[2H]C([2H])([2H])n1ncc2c1-c1ccnc(c1)[C@@H](c1coc(-c3cc(Cl)ccc3-n3cc(Cl)nn3)cc1=O)CCC[C@@H](C)C(=O)N2` has a clearance [16] of 8.6 mL/min/kg, a bioavailability [17] of 36.8% and a half-life [18] of 1.05 h. It also gave an IC50 (Coagulation factor XI [4]) of 6.1 nM and an EC (Plasma [10]) of 2.7 µM.

Compound `CC(C)c1cc(COc2ccccc2CC(=O)O)cc(-c2ccc3c(c2)[C@H](N)CO3)c1` has an EC (Plasma [19]) of 9.9 µM and an EC (Plasma [10]) of 2.2 µM.

`C[C@@H]1CCC[C@H](c2ccc(-c3cc(Cl)ccc3-n3cc(Cl)nn3)oc2=O)c2cc(ccn2)-c2c(cnn2C(F)F)NC1=O` gave a clearance [20] of 5.65 mL/min/kg, a half-life [21] of 1 h and a bioavailability [22] of 37.1%. For the same compound, the IC50 (Coagulation factor XI [4]) was 3.9 nM and the EC (Plasma [10]) was 0.87 µM.

Compound `COCC[C@@H](C(=O)Nc1ccc2nn(C)cc2c1)N1CC(=O)N(c2cc(Cl)ccc2-n2cc(Cl)nn2)CC1=O` has a half-life [23] of over 15 h, a bioavailability [24] of 72.5% and a half-life [25] of over 5 h. It also gave a half-life [8] of 1.5 h and an EC (Plasma [10]) of 5.3 µM.

Work on `C[C@@H]1CCC[C@H](n2cnc(-c3cc(Cl)ccc3-n3cnnn3)cc2=O)c2cc(c3c(n2)OCCO3)-c2c(cnn2C)NC1=O` yielded an IC50 (Coagulation factor XI [4]) of 10.4 nM.

Compound `CC[C@@H](NC(=O)N1C(=O)[C@H](Cc2ccnc(N)c2)[C@H]1C(=O)O)c1ccccc1` has an IC50 (Coagulation factor XI [4]) of under 10 nM.

With `COC(=O)Nc1ccc2c(c1)NC(=O)[C@H](C)CCC[C@H](c1ccc(-c3cc(Cl)ccc3-n3cc(C(F)(F)F)cn3)c[n+]1[O-])c1nc-2c(C)[nH]1` the IC50 (Plasma kallikrein) was 42 nM, the IC50 (Coagulation factor XI [4]) was 0.9 nM and the MRT [26] was 11 h.

In the case of `O=C(OC[C@H]1O[C@@H](OC(=O)c2cc(OS(=O)(=O)O)cc(OS(=O)(=O)O)c2)[C@H](OC(=O)c2cc(OS(=O)(=O)O)cc(OS(=O)(=O)O)c2)[C@@H](OC(=O)c2cc(OS(=O)(=O)O)cc(OS(=O)(=O)O)c2)[C@@H]1OC(=O)c1cc(OS(=O)(=O)O)cc(OS(=O)(=O)O)c1)c1cc(OS(=O)(=O)O)cc(OS(=O)(=O)O)c1`, the IC50 (Coagulation factor XI [4]) is reported as 1400 nM.

Work on `O=C(O)c1ccc(NC(=O)[C@H](CC2=CC=CCC2)n2ccc(-c3cc(Cl)ccc3-n3cnnn3)cc2=O)cc1` yielded a Ki (Coagulation factor XI [4]) of 6 nM.

Compound `C[C@@H](NC(=O)N1C(=O)[C@H](Cc2ccnc(N)c2)[C@H]1C(=O)O)C1CCCCC1` [FRUNEXIAN] has an IC50 (Coagulation factor XI [27]) of 7.1 nM, a half-life [28] of 0.75 h and an IC50 (Trypsin) of over 4800 nM. It also gave an IC50 (Prothrombin) of over 20000 nM.
